Measurements published in patent US8785460B2, “Tricyclic compounds and use thereof” (Takeda Pharmaceutical Company Limited, priority 2008, dated 2014).

biological target: T1, human CRF1 receptor (Homo sapiens, UniProt P34998); experiment: Measurement of CRF Binding Inhibitory Rate (receptor binding experiment with 125I-CRF); settings: human CRF1 receptor expressing CHO cellular membrane fraction, 50 pM 125I-CRF, room temperature 1.5 hr, 0.05 nM to 10 μM of compound; read-out: IC50 values (CRF binding inhibition)
T1 construct: expressed in transfected cells; host or cells: CHO cells (membrane fraction)
T1 sequence (P34998 24-415): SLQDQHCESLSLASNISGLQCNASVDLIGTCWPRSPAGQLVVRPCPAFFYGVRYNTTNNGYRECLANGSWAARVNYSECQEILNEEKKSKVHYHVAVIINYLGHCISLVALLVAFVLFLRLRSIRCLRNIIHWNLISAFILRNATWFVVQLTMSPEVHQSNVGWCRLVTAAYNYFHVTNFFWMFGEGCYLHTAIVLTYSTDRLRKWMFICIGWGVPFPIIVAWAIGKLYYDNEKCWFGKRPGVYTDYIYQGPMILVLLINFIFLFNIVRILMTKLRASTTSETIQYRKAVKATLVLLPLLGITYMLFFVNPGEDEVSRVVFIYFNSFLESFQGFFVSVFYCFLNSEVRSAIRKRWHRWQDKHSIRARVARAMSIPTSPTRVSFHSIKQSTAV
Method: Measurement of CRF Binding Inhibitory Rate
A receptor binding experiment was carried out using a human CRF1 receptor expressing CHO cellular membrane fraction and ovine CRF, [^125I]-tyr^0(^125I-CRF). 1000 nM of a test compound was incubated with 1 μg of human CREF receptor expressing CHO cellular membrane fraction and 50 pM of ^125I-CRF in a binding assay buffer (50 mM Tris-HCl, 5 mM EDTA, 10 mM MgCl2, 0.05% CHAPS, 0.1% BSA, 0.5 mM PMSF, 0.1 μg/mL pepstatin, 20 μg/mL leupeptin, pH 7.5). In addition, for measuring nonspecific binding (NSB), 0.1 μM unlabelled human Urocortin was incubated with 5 μg of human CRE receptor expressing CHO cellular membrane fraction and 50 pM of ^125I-CRF in a binding assay buffer. After a binding reaction was carried out at room temperature for 1.5 hr, the membrane was entrapped on a glass filter (UniFilter plate GF-C/Perkin Elmer) by suction filtration using a cell harvester (Perkin Elmer), and washed with ice-cooled 50 mM Tris-HCl (pH 7.5). After drying the glass filter, a liquid scintillation cocktail (Microscinti 0, Perkin Elmer) was added, and the radioactivity of ^125I-CRF remaining on a glass filter was measured using Topcount (Perkin Elmer).
(TB−SB)/(TB−NSB)×100 (SB: radioactivity when a compound is added, TB: maximum binding radioactivity, NSB: nonspecific binding radioactivity) were calculated to obtain binding inhibitory rates under the range of the presence from 0.05 nM to 10 μM of each compound. The IC50 values were calculated by using GraphPad Prism software.

SMILES	IC50 [nM]
CCCC(O)c1ccc(Cl)c2nc3n(c12)CCCN3c1c(C)cc(Cl)cc1Cl (centres unmarked) [Example 140, 1-[9-Chloro-1-(2,4-dichloro-6-methylphenyl)-1,2,3,4-tetrahydropyrimido[1,2-a]benzimidazol-6-yl]butan-1-ol]	< 1000
CC(C)(C#N)c1ccc(Cl)c2nc3n(c12)CCCN3c1ccc(Cl)cc1Cl [Example 144, 2-[9-Chloro-1-(2,4-dichlorophenyl)-1,2,3,4-tetrahydropyrimido[1,2-a]benzimidazol-6-yl]-2-methylpropanenitrile]	< 1000
CCC(OC(C)=O)c1ccc(Cl)c2nc3n(c12)CCCN3c1cnc(OC)cc1C (centres unmarked) [Example 161, 1-[9-Chloro-1-(6-methoxy-4-methylpyridin-3-yl)-1,2,3,4-tetrahydropyrimido[1,2-a]benzimidazol-6-yl]propyl acetate]	< 1000
COC(=O)c1ccc(Cl)c2nc3n(c12)CCCN3c1ncc(C)nc1C [Example 175, Methyl 9-chloro-1-(3,5-dimethylpyrazin-2-yl)-1,2,3,4-tetrahydropyrimido[1,2-a]benzimidazole-6-carboxylate]	< 1000
CC/C(=N\OC(F)F)c1ccc(Cl)c2nc3n(c12)CCCN3c1c(Cl)cc(Cl)cc1Cl [Example 194, (1E)-1-[9-Chloro-1-(2,4,6-trichlorophenyl)-1,2,3,4-tetrahydropyrimido[1,2-a]benzimidazol-6-yl]propan-1-one O-(difluoromethyl)oxime]	< 1000
Clc1ccc(N2CCCn3c2nc2c(Cl)ccc(N4CCCC4)c23)c(Cl)c1 [Example 196, 9-Chloro-1-(2,4-dichlorophenyl)-6-pyrrolidin-1-yl-1,2,3,4-tetrahydropyrimido[1,2-a]benzimidazole]	< 1000
CCC(CC)c1ccc(Cl)c2nc3n(c12)CCN3c1ncc(C(F)(F)F)cc1Cl [Example 225, 8-Chloro-1-[3-chloro-5-(trifluoromethyl)pyridin-2-yl]-5-(1-ethylpropyl)-2,3-dihydro-1H-imidazo[1,2-a]benzimidazole]	< 1000
CC(C)C(O)c1ccc(Cl)c2nc3n(c12)CCCN3c1ccc(Cl)cc1Cl (centres unmarked) [Example 234, 1-[9-Chloro-1-(2,4-dichlorophenyl)-1,2,3,4-tetrahydropyrimido[1,2-a]benzimidazol-6-yl]-2-methylpropan-1-ol]	< 1000
CCC(OC(C)C)c1ccc(Cl)c2nc3n(c12)CCCN3c1ccc(Cl)cc1Cl (centres unmarked) [Example 237, 9-Chloro-1-(2,4-dichlorophenyl)-6-[1-(1-methylethoxy)propyl]-1,2,3,4-tetrahydropyrimido[1,2-a]benzimidazole]	< 1000
CCC(OCCO)c1ccc(Cl)c2nc3n(c12)CCCN3c1ccc(Cl)cc1Cl (centres unmarked) [Example 242, 2-{1-[9-Chloro-1-(2,4-dichlorophenyl)-1,2,3,4-tetrahydropyrimido[1,2-a]benzimidazol-6-yl]propoxy}ethanol]	< 1000
CCC(OC(C)=O)c1ccc(Cl)c2nc3n(c12)CCCN3c1ccccc1Cl (centres unmarked) [Example 253, 1-[9-Chloro-1-(2-chlorophenyl)-1,2,3,4-tetrahydropyrimido[1,2-a]benzimidazol-6-yl]propyl acetate]	< 1000
CCC(OC(C)=O)c1ccc(Cl)c2nc3n(c12)CCCN3c1ccc(S(C)(=O)=O)cc1Cl (centres unmarked) [Example 254, 1-{9-Chloro-1-[2-chloro-4-(methylsulfonyl)phenyl]-1,2,3,4-tetrahydropyrimido[1,2-a]benzimidazol-6-yl}propyl acetate]	< 1000
CCC(OC(C)=O)c1ccc(Cl)c2nc3n(c12)CCCN3c1ccc(C(N)=O)cc1Cl (centres unmarked) [Example 255, 1-[1-(4-Carbamoyl-2-chlorophenyl)-9-chloro-1,2,3,4-tetrahydropyrimido[1,2-a]benzimidazol-6-yl]propyl acetate]	< 1000
CCC(OC1CC1)c1ccc(Cl)c2nc3n(c12)CCCN3c1ccc(OC)nc1C (centres unmarked) [Example 271, 9-Chloro-6-[1-(cyclopropyloxy)propyl]-1-(6-methoxy-2-methylpyridin-3-yl)-1,2,3,4-tetrahydropyrimido[1,2-a]benzimidazole]	< 1000
CCOc1ccc(N2CCCn3c2nc2c(Cl)ccc(C(OC(F)F)=C(F)F)c23)c(C)n1 [Example 286, 9-Chloro-6-[1-(difluoromethoxy)-2,2-difluoroethenyl]-1-(6-ethoxy-2-methylpyridin-3-yl)-1,2,3,4-tetrahydropyrimido[1,2-a]benzimidazole]	< 1000
CCOc1ccc(N2CCCn3c2nc2c(Cl)ccc(C(OC(F)F)C(F)(F)F)c23)c(C)n1 (centres unmarked) [Example 287, 9-Chloro-6-[1-(difluoromethoxy)-2,2,2-trifluoroethyl]-1-(6-ethoxy-2-methylpyridin-3-yl)-1,2,3,4-tetrahydropyrimido[1,2-a]benzimidazole]	< 1000
Cc1nc(OC(C)C)ccc1N1CCCn2c1nc1c(Cl)ccc(C(OC(F)F)C(F)(F)F)c12 (centres unmarked) [Example 288, 9-Chloro-6-[1-(difluoromethoxy)-2,2,2-trifluoroethyl]-1-[2-methyl-6-(1-methylethoxy)pyridin-3-yl]-1,2,3,4-tetrahydropyrimido[1,2-a]benzimidazole]	< 1000
Cc1nc(C(N)=O)ccc1N1CCCn2c1nc1c(Cl)ccc(C(OC(F)F)C(F)(F)F)c12 (centres unmarked) [Example 293, 5-{9-Chloro-6-[1-(difluoromethoxy)-2,2,2-trifluoroethyl]-3,4-dihydropyrimido[1,2-a]benzimidazol-1(2H)-yl}-6-methylpyridine-2-carboxamide]	< 1000
CCC(c1ccc(Cl)c2nc3n(c12)CCCN3c1ccc(OC)nc1C)C(F)F (centres unmarked) [Example 303, 9-Chloro-6-[1-(difluoromethyl)propyl]-1-(6-methoxy-2-methylpyridin-3-yl)-1,2,3,4-tetrahydropyrimido[1,2-a]benzimidazole]	< 1000
C=COC(CC)c1ccc(Cl)c2nc3n(c12)CCCN3c1ccc(Cl)cc1Cl (centres unmarked) [Example 305, 9-Chloro-1-(2,4-dichlorophenyl)-6-[1-(ethenyloxy)propyl]-1,2,3,4-tetrahydropyrimido[1,2-a]benzimidazole]	< 1000
OC(c1ccc(Cl)c2nc3n(c12)CCCN3c1ccc(Cl)cc1Cl)C(F)(F)F (centres unmarked) [Example 307, 1-[9-Chloro-1-(2,4-dichlorophenyl)-1,2,3,4-tetrahydropyrimido[1,2-a]benzimidazol-6-yl]-2,2,2-trifluoroethanol]	< 1000
CCC(CC#N)c1ccc(Cl)c2nc3n(c12)CCCN3c1ccc(Cl)cc1Cl (centres unmarked) [Example 316, 3-[9-Chloro-1-(2,4-dichlorophenyl)-1,2,3,4-tetrahydropyrimido[1,2-a]benzimidazol-6-yl]pentanenitrile]	< 1000
CCC(c1ccc(Cl)c2nc3n(c12)CCCN3c1ccc(Cl)cc1Cl)C(O)C(F)(F)F (centres unmarked) [Example 317, 3-[9-chloro-1-(2,4-dichlorophenyl)-1,2,3,4-tetrahydropyrimido[1,2-a]benzimidazol-6-yl]-1,1,1-trifluoropentan-2-ol]	< 1000
CCC(C(=O)C(F)(F)F)c1ccc(Cl)c2nc3n(c12)CCCN3c1ccc(Cl)cc1Cl (centres unmarked) [Example 318]	< 1000
COC(=O)c1ccc(Cl)c2nc3n(c12)CCCCN3c1ccc(OC)cc1Cl [Example 330, Methyl 10-chloro-1-(2-chloro-4-methoxyphenyl)-2,3,4,5-tetrahydro-1H-[1,3]diazepino[1,2-a]benzimidazole-7-carboxylate]	< 1000
COc1ccc(N2CCCCn3c2nc2c(Cl)ccc(CO)c23)c(Cl)c1 [Example 331, [10-Chloro-1-(2-chloro-4-methoxyphenyl)-2,3,4,5-tetrahydro-1H-[1,3]diazepino[1,2-a]benzimidazol-7-yl]methanol]	< 1000
CCN(CC)c1cccc2nc3n(c12)CC(F)(F)CCN3c1ccc(Cl)cc1Cl [Example 359, 1-(2,4-Dichlorophenyl)-N,N-diethyl-4,4-difluoro-2,3,4,5-tetrahydro-1H-[1,3]diazepino[1,2-a]benzimidazol-7-amine]	< 1000
CCN(CC)c1cccc2nc3n(c12)CC(N=[N+]=[N-])CCN3c1ccc(Cl)cc1Cl (centres unmarked) [Example 361, 4-Azido-1-(2,4-dichlorophenyl)-N,N-diethyl-2,3,4,5-tetrahydro-1H-[1,3]diazepino[1,2-a]benzimidazol-7-amine]	< 1000
OC(c1ccc(Br)c2nc3n(c12)CCCN3c1ccc(Cl)cc1Cl)(C1CC1)C1CC1 [Example 368, [9-Bromo-1-(2,4-dichlorophenyl)-1,2,3,4-tetrahydropyrimido[1,2-a]benzimidazol-6-yl](dicyclopropyl)methanol]	< 1000
